Assay results from the CheMixHub viscosity set.

Assay: xn = mol fraction of the nth substance listed

CCCCCCO + O
viscosity [mPa·s], 101 kPa
Conditions	298.15 K	308.15 K	318.15 K
x2 = 0.0013	–	–	2.573
x2 = 0.0042	4.567	3.388	–
x2 = 0.0554	–	–	2.513
x2 = 0.0593	4.427	3.295	–
x2 = 0.1019	–	–	2.475
x2 = 0.1079	4.355	3.237	–
x2 = 0.1483	4.324	3.209	2.447
x2 = 0.1875	–	–	2.432
x2 = 0.1933	4.314	3.193	–
x2 = 0.2248	–	–	2.425
x2 = 0.2367	4.322	3.192	–
x2 = 0.2673	4.341	3.198	2.427
x2 = 0.2981	4.369	3.213	–
x2 = 0.3116	–	–	2.439

CC(C)CC(=O)CC(C)C + CCCC(C)O
viscosity [mPa·s], 100 kPa
Conditions	x1 = 0.0794	x1 = 0.1627	x1 = 0.2381	x1 = 0.3487	x1 = 0.4381	x1 = 0.5619	x1 = 0.6565	x1 = 0.7364	x1 = 0.8517	x1 = 0.9341
293.15 K	3.12	2.32	1.78	1.18	0.84	0.58	0.51	0.55	0.71	0.85
298.15 K	2.63	1.94	1.43	0.89	0.62	0.43	0.4	0.47	0.66	0.81
303.15 K	2.24	1.68	1.21	0.76	0.52	0.34	0.32	0.41	0.6	0.76
308.15 K	1.89	1.41	1.05	0.66	0.44	0.27	0.24	0.33	0.52	0.7
313.15 K	1.55	1.17	0.87	0.55	0.37	0.22	0.19	0.28	0.46	0.64
318.15 K	1.28	0.98	0.75	0.49	0.32	0.18	0.16	0.24	0.42	0.59
323.15 K	1.09	0.84	0.65	0.42	0.26	0.14	–	0.2	0.38	0.53

CCOCC + CC(=O)O
viscosity [mPa·s], 101 kPa
Conditions	x2 = 0.124	x2 = 0.2575	x2 = 0.5649	x2 = 0.6393	x2 = 0.749	x2 = 0.9116
293.15 K	0.3184	0.3737	0.5451	0.6641	–	1.048
303.15 K	0.2837	0.3354	0.483	0.5903	0.7376	0.8999
313.15 K	–	0.3088	–	0.5215	0.6621	0.791
323.15 K	–	–	0.3937	0.4665	0.5877	0.6835
